One assay concerns the target Human plasma kallikrein (Homo sapiens (Human), UniProt P03952). Kind of assay: Determination of the IC50 for plasma kallikrein. Format: biochemical. To be noted: 25° C., fluorogenic substrate H-DPro-Phe-Arg-AFC; read-out: IC50 (human PKaI). The protocol: Determination of the IC50 for Plasma Kallikrein
Human plasma kallikrein (Protogen) was incubated at 25° C. with the fluorogenic substrate H-DPro-Phe-Arg-AFC and various concentrations of the test compound. Residual enzyme activity (initial rate of reaction) was determined by measuring the change in […] at 410 nm and the IC50 value for the test compound was determined.

Another assay has as its target Human KLK1 (Homo sapiens (Human), UniProt P06870). Kind of assay: Determination of the IC50 for KLK1. Type of assay: biochemical. Conditions: 25° C., fluorogenic substrate H-DVal-Leu-Arg-AFC. The procedure:
Determination of the IC50 for KLK1
Human KLK1 (Callbiochem) was incubated at 25° C. with the fluorogenic substrate H-DVal-Leu-Arg-AFC and various concentrations of the test compound. Residual enzyme activity (initial rate of reaction) was determined by measuring the change in […] at 410 nm and the IC50 value for the test compound was determined.

pIC50: −log10 of the molar value. Where only a bound is given, the exact number is not on record here.

Human KLK1, sequence (P06870 25-262): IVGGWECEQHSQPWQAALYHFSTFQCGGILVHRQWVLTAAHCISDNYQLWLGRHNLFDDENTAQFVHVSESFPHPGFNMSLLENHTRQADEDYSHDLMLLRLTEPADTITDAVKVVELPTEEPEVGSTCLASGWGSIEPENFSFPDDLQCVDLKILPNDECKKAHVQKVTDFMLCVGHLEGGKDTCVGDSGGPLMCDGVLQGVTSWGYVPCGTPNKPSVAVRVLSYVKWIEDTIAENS
Human plasma kallikrein, sequence (P03952 391-638): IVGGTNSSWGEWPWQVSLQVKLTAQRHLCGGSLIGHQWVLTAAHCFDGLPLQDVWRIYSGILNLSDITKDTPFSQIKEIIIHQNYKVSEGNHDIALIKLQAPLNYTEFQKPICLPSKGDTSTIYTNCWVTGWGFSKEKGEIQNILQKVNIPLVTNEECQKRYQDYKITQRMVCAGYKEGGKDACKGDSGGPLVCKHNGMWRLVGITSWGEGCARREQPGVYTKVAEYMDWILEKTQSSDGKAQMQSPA
Human plasma kallikrein, sequence (P03952 20-390 partner): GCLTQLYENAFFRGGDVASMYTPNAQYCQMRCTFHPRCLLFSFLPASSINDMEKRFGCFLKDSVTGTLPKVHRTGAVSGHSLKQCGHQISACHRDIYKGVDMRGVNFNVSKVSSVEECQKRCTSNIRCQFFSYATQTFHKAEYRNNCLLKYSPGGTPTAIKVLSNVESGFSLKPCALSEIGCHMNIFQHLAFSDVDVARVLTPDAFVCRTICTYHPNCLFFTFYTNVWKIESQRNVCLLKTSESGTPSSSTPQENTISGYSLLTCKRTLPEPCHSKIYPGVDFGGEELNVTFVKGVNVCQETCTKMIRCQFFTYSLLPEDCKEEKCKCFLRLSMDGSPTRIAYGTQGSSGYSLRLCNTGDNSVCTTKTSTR

Turning to `Cc1cnn(Cc2ccc(Cn3cc(C(=O)NCc4cc(Cl)ccc4F)c(C(F)(F)F)n3)cc2)c1` [Example 20, N-[(5-chloro-2-fluorophenyl)methyl]-1-({4-[(4-methylpyrazol-1-yl)methyl]phenyl}methyl)-3-(trifluoromethyl)pyrazole-4-carboxamide], the negative logarithm of the IC50 (pIC50) on Human plasma kallikrein is 6.13; against Human KLK1, below 5.00.
Turning to `Cc1cnn(Cc2ccc(Cn3cc(C(=O)NCc4c(F)cccc4F)c(C(F)(F)F)n3)cc2)c1` [Example 13, N-[(2,6-difluorophenyl)methyl]-1-({4-[(4-methylpyrazol-1-yl)methyl]phenyl}methyl)-3-(trifluoromethyl)pyrazole-4-carboxamide], the negative logarithm of the IC50 (pIC50) was 6.36 at Human plasma kallikrein and below 5.00 against Human KLK1.
As for `COc1cccc(CNC(=O)c2cn(Cc3ccc(Cn4cc(C)cn4)cc3)nc2C(F)(F)F)c1F` [Example 4, N-[(2-fluoro-3-methoxyphenyl)methyl]-1-({4-[(4-methylpyrazol-1-yl)methyl]phenyl}methyl)-3-(trifluoromethyl)pyrazole-4-carboxamide], the negative logarithm of the IC50 (pIC50) on Human plasma kallikrein is 6.87; against Human KLK1 it was below 5.00.
For `Cc1cnn(Cc2ccc(Cn3cc(C(=O)NCc4cccc(OC(F)(F)F)c4)c(C(F)(F)F)n3)cc2)c1` [Example 7, 1-({4-[(4-methylpyrazol-1-yl)methyl]phenyl}methyl)-N-{[3-(trifluoromethoxy)phenyl]methyl}-3-(trifluoromethyl)pyrazole-4-carboxamide], in that order: below 5.00 and below 5.00.
As to `COCc1nn(Cc2ccc(Cn3cc(C)cn3)cc2)cc1C(=O)NCc1csc2ccc(Cl)cc12` [Example 47, N-[(5-chloro-1-benzothiophen-3-yl)methyl]-3-(methoxymethyl)-1-({4-[(4-methylpyrazol-1-yl)methyl]phenyl}methyl)pyrazole-4-carboxamide], the values for the pIC50 on Human plasma kallikrein and against Human KLK1 were 6.12 and below 5.00, respectively.
Regarding `COCc1nn(Cc2ccc(Cn3ccccc3=O)cc2)cc1C(=O)NCc1cc(OC)ccc1C(N)=O` [Example 86, N-[(2-carbamoyl-5-methoxyphenyl)methyl]-3-(methoxymethyl)-1-({4-[(2-oxopyridin-1-yl)methyl]phenyl}methyl)pyrazole-4-carboxamide], the pIC50 on Human plasma kallikrein was 8.06; against Human KLK1, below 4.40.
Take `Cc1ccc(CNC(=O)c2cn(Cc3ccc(Cn4cc(C)cn4)cc3)nc2C(F)(F)F)cc1` [Example 8, N-[(4-methylphenyl)methyl]-1-({4-[(4-methylpyrazol-1-yl)methyl]phenyl}methyl)-3-(trifluoromethyl)pyrazole-4-carboxamide]: the values for the negative logarithm of the IC50 (pIC50) at Human plasma kallikrein and against Human KLK1 were 6.27 and below 5.00, respectively.
`COc1cc(F)c(CNC(=O)c2cn(Cc3ccc(Cn4cc(C)cn4)cc3)nc2C(F)(F)F)c(F)c1` [Example 11, N-[(2,6-difluoro-4-methoxyphenyl)methyl]-1-({4-[(4-methylpyrazol-1-yl)methyl]pheny}methyl)-3-(trifluoromethyl)pyrazole-4-carboxamide]: on Human plasma kallikrein, the pIC50 was 6.34.
With `COCc1nn(Cc2ccc(Cn3ccccc3=O)cc2)cc1C(=O)NCc1ccc(C)nc1` [Example 32, 3-(methoxymethyl)-N-[(6-methylpyridin-3-yl)methyl]-1-({4-[(2-oxopyridin-1-yl)methyl]phenyl}methyl)pyrazole-4-carboxamide], the negative logarithm of the IC50 (pIC50) is 5.10 on Human plasma kallikrein and below 5.00 against Human KLK1.
Regarding `Cc1cnn(Cc2ccc(Cn3cc(C(=O)NCc4c(Cl)cccc4Cl)c(C(F)(F)F)n3)cc2)c1` [Example 22, N-[(2,6-dichlorophenyl)methyl]-1-({4-[(4-methylpyrazol-1-yl)methyl]phenyl}methyl)-3-(trifluoromethyl)pyrazole-4-carboxamide], the pIC50 on Human plasma kallikrein is 5.87; against Human KLK1 it was below 5.00.
For `COc1ccc(CNC(=O)c2cn(Cc3ccc(Cn4cc(C)cn4)cc3)nc2C(F)(F)F)c(OC)c1` [Example 10, N-[(2,4-dimethoxyphenyl)methyl]-1-({4-[(4-methylpyrazol-1-yl)methyl]phenyl}methyl)-3-(trifluoromethyl)pyrazole-4-carboxamide], the figures for the pIC50 on Human plasma kallikrein and on Human KLK1 were 5.90 and below 5.00, respectively.
With `Cc1cc(C)c(CNC(=O)c2cn(Cc3ccc(Cn4cc(C)cn4)cc3)nc2C(F)(F)F)c(C)c1` [Example 26, 1-({4-[(4-methylpyrazol-1-yl)methyl]phenyl}methyl)-3-(trifluoromethyl)-N-[(2,4,6-trimethylphenyl)methyl]pyrazole-4-carboxamide], the pIC50 at Human plasma kallikrein is 5.87; at Human KLK1, below 5.00.
Turning to `Cc1cnn(Cc2ccc(Cn3cc(C(=O)NCc4cc(Cl)ccn4)c(C(F)(F)F)n3)cc2)c1` [Example 30, N-[(4-chloropyridin-2-yl)methyl]-1-({4-[(4-methylpyrazol-1-yl)methyl]phenyl}methyl)-3-(trifluoromethyl)pyrazole-4-carboxamide], the values for the pIC50 on Human plasma kallikrein and against Human KLK1 were 6.04 and below 5.00, respectively.
On to `NC(=O)c1ccc(CNC(=O)c2cn(Cc3ccc(Cn4ccccc4=O)cc3)nc2C2CC2)cc1` [Example 50, N-[(4-carbamoylphenyl)methyl]-3-cyclopropyl-1-({4-[(2-oxopyridin-1-yl)methyl]phenyl}methyl)pyrazole-4-carboxamide], for which the pIC50 at Human plasma kallikrein is 5.74; at Human KLK1, below 5.00.
For `Cc1cnn(Cc2ccc(Cn3cc(C(=O)NCc4c(F)cccc4C(F)(F)F)c(C(F)(F)F)n3)cc2)c1` [Example 15, N-{[2-fluoro-6-(trifluoromethyl)phenyl]methyl}-1-({4-[(4-methylpyrazol-1-yl)methyl]phenyl}methyl)-3-(trifluoromethyl)pyrazole-4-carboxamide], the negative-log IC50 (pIC50) is 6.66 at Human plasma kallikrein and below 5.00 against Human KLK1.
On to `Cc1cnn(Cc2ccc(Cn3cc(C(=O)NCc4c(F)cc(Cl)cc4F)c(C(F)(F)F)n3)cc2)c1` [Example 16, N-[(4-chloro-2,6-difluorophenyl)methyl]-1-({4-[(4-methylpyrazol-1-yl)methyl]phenyl}methyl)-3-(trifluoromethyl)pyrazole-4-carboxamide], for which the pIC50 is 6.58 on Human plasma kallikrein and below 5.00 at Human KLK1.
For `Cc1cnn(Cc2ccc(Cn3cc(C(=O)NCc4c(C)cccc4C)c(C(F)(F)F)n3)cc2)c1` [Example 25, N-[(2,6-dimethylphenyl)methyl]-1-({4-[(4-methylpyrazol-1-yl)methyl]phenyl}methyl)-3-(trifluoromethyl)pyrazole-4-carboxamide], the pIC50 is 5.74 at Human plasma kallikrein and below 5.00 against Human KLK1.
With `Cc1cnn(Cc2ccc(Cn3cc(C(=O)NCc4c(C(F)(F)F)ccc(Cl)c4F)c(C(F)(F)F)n3)cc2)c1` [Example 21, N-{[3-chloro-2-fluoro-6-(trifluoromethyl)phenyl]methyl}-1-({4-[(4-methylpyrazol-1-yl)methyl]phenyl}methyl)-3-(trifluoromethyl)pyrazole-4-carboxamide], the pIC50 was 6.59 on Human plasma kallikrein and below 5.00 against Human KLK1.
For the compound `COc1ccc(CNC(=O)c2cn(Cc3ccc(Cn4cc(C)cn4)cc3)nc2C(F)(F)F)c(C(F)(F)F)c1` [Example 12, N-{[4-methoxy-2-(trifluoromethyl)phenyl]methyl}-1-({4-[(4-methylpyrazol-1-yl)methyl]phenyl}methyl)-3-(trifluoromethyl)pyrazole-4-carboxamide], the pIC50 at Human plasma kallikrein was 6.13; against Human KLK1, below 5.00.
As for `Cc1ccc(CNC(=O)c2cn(Cc3ccc(Cn4cc(C)cn4)cc3)nc2C(F)(F)F)c(F)c1` [Example 28, N-[(2-fluoro-4-methylphenyl)methyl]-1-({4-[(4-methylpyrazol-1-yl)methyl]phenyl}methyl)-3-(trifluoromethyl)pyrazole-4-carboxamide], the pIC50 is 6.55 at Human plasma kallikrein and below 5.00 at Human KLK1.
In the case of `Cc1cnn(Cc2ccc(Cn3cc(C(=O)NCc4cc(Cl)ccc4C(F)(F)F)c(C(F)(F)F)n3)cc2)c1` [Example 23, N-{[5-chloro-2-(trifluoromethyl)phenyl]methyl}-1-({4-[(4-methylpyrazol-1-yl)methyl]phenyl}methyl)-3-(trifluoromethyl)pyrazole-4-carboxamide], the pIC50 at Human plasma kallikrein was 5.97; against Human KLK1, below 5.00.
On to `Cc1cnn(Cc2ccc(Cn3cc(C(=O)NCc4c(F)ccc(Cl)c4F)c(C(F)(F)F)n3)cc2)c1` [Example 18, N-[(3-chloro-2,6-difluorophenyl)methyl]-1-({4-[(4-methylpyrazol-1-yl)methyl]phenyl}methyl)-3-(trifluoromethyl)pyrazole-4-carboxamide], for which the negative-log IC50 (pIC50) on Human plasma kallikrein is 6.43; against Human KLK1, below 5.00.
Regarding `COCc1nn(Cc2ccc(Cn3ccccc3=O)cc2)cc1C(=O)NCc1cnccc1C(F)(F)F` [Example 31, 3-(methoxymethyl)-1-({4-[(2-oxopyridin-1-yl)methyl]phenyl}methyl)-N-{[4-(trifluoromethyl)pyridin-3-yl]methyl}pyrazole-4-carboxamide], the negative-log IC50 (pIC50) on Human plasma kallikrein is 6.41; against Human KLK1, below 5.00.
For `COCc1nn(Cc2ccc(Cn3ccccc3=O)cc2)cc1C(=O)NCc1c(F)cccc1C(F)F` [Example 80, N-{[2-(difluoromethyl)-6-fluorophenyl]methyl}-3-(methoxymethyl)-1-({4-[(2-oxopyridin-1-yl)methyl]phenyl}methyl)pyrazole-4-carboxamide], the negative-log IC50 (pIC50) on Human plasma kallikrein is 7.69; against Human KLK1, below 4.40.
In the case of `COc1ccc(F)c(CNC(=O)c2cn(Cc3ccc(Cn4cc(C)cn4)cc3)nc2C(F)(F)F)c1` [Example 9, N-[(2-fluoro-5-methoxyphenyl)methyl]-1-({4-[(4-methylpyrazol-1-yl)methyl]phenyl}methyl)-3-(trifluoromethyl)pyrazole-4-carboxamide], the negative logarithm of the IC50 (pIC50) was 6.62 on Human plasma kallikrein and below 5.00 against Human KLK1.

Source of the values: US10364238B2, “N-((het) arylmethyl)-heteroaryl-carboxamides compounds as plasma kallikrein inhibitors” (KALVISTA PHARMACEUTICALS LIMITED, priority 2014, dated 2019).
